Test [1] addresses T1, RANBP2 RanBD4 (Homo sapiens, UniProt P49792).
T1 construct: GST (cleaved yes); made in house; host or cells: Escherichia coli BL21-Gold(DE3)
T1 sequence (P49792 2924-3050): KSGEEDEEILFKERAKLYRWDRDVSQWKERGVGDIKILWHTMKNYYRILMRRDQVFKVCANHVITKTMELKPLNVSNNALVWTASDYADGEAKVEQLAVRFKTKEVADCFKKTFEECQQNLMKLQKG
As to the kind of experiment: FP displacement assay, RANBP2 RanBD4. It is filed as binding. Conditions: probe FITC-C7orf25 5 nM, 50 mM sodium phosphate pH 7.4, room temperature, at least three technical replicates, read-out: KD values ± SEM. The protocol:
(§1) FP experiments were performed as described previously (Kliche et al, [2021]). Shortly, in order to monitor the binding event, FITC‐labelled peptides were used (excitation 495 nm, emission: 535 nm) and the FP signal was recorded in mP on a SpectraMax iD5 Multi‐Mode Microplate Reader (Molecular Devices) by measuring the emitted light in two angels. The measurements were performed at room temperature and prepared in nonbinding black half area 96‐well microplates (Corning®; 50 μl/well). For measuring direct binding, that is saturation curves, a 1:1 dilution series of protein domain (25 μl/well) was generated in 50 mM sodium phosphate buffer pH 7.4 and the measurement performed with 5 nM FITC‐labelled peptide (25 μl/well). The buffer‐corrected values were subsequently plotted with PRISM and fitted to the quadratic equation (Gianni et al, [2005]).
(§2) The 1:1 dilution series in this experiment was performed with the unlabelled peptide in 50 mM sodium phosphate buffer pH 7.4, so that each well‐contained unlabelled peptide (25 μl) at a certain concentration and pre‐formed complex (25 μl). The KD values of this indirectly monitored binding event were calculated as described previously (Nikolovska‐Coleska et al, [2004]). All measurements were at least in technical triplicates as well as biological duplicates when indicated. An amplitude shift between repeat measurements in the displacement experiments was occasionally observed due to variations in the protein preparations. If that was the case, the “active” protein concentration was back‐calculated according to the quadratic equation from the saturation curves performed in parallel. By comparing the active protein concentrations in the complex between different protein preparations, the amplitude was normalised.

Test [2] has as its target T1, RANBP2 RanBD4. In words: Phosphomimetic ProP-PD selection, RANBP2 RanBD4. To be noted: phosphomimetic enrichment score of the wild-type/phosphomimetic (E) pair at the phosphosite, PM_HD2 phage selection; positive = phosphomimetic enhances binding; P-value in brackets not taken. How it is done:
(§3) Selections using the PM_HD2 phage library were performed as described previously with minor modification to the original protocol. The corresponding tag protein (either GST or MBP) was first used during negative selections. Selections were run for 4 days. • Bait and tag proteins (10–15 μg in 100 μl PBS) were immobilised in 96‐well MaxiSorb plate (NUNC) o.n. at 4°C. • Escherichia coli OmniMax bacteria were grown in 2YT medium supplemented with tetracycline (100 μg/ml) at 37°C and 200 rpm. • Plates with immobilised bait/tag proteins were blocked with 0.5% BSA in PBS for 1 h at 4°C. • Phage library (10 μl/well) was prepared by diluting 10× with PBS and adding one‐fourth of the volume of PEG/NaCl. For phage precipitation, prepared library was incubated for 10 min on ice followed by centrifugation for 10 min at 10,000 × g at 4°C. […]
(§4) Based on the results from phage pool ELISAs, samples from selection Day 3 and 4 were selected for NGS, as described previously (Benz et al, [2022]). • Peptide coding regions were amplified and dual‐barcoded by PCR. […] From the columns, samples were eluted with 30 μl TE (10 mM Tris–HCl, 1 mM EDTA. pH 7.5) buffer and quantified with Quant‐iT PicoGreen dsDNA Assay Kit. • Samples were sequenced on MiSeq (MSC 2.5.0.5/RTA 1.18.54) with a 151 nt (Read1) setup using “Version3” chemistry. […]

Test [3] deals with T2, PDCD6IP Alix V domain (Homo sapiens, UniProt Q8WUM4).
T2 construct: GST (cleaved yes); made in house; host or cells: Escherichia coli BL21-Gold(DE3)
T2 sequence (Q8WUM4 360-702): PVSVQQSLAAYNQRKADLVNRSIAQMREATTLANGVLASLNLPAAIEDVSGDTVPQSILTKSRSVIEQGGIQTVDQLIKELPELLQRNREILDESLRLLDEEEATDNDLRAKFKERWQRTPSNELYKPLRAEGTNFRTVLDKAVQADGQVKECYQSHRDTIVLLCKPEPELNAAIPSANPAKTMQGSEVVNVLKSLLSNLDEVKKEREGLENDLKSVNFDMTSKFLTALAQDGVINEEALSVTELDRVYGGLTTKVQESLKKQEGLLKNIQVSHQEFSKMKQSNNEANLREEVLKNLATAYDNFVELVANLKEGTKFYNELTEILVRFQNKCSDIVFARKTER
As to the kind of experiment: FP displacement assay, PDCD6IP Alix V domain. The test is classed as binding. To be noted: probe FITC-HIV1_Gag 5 nM, 50 mM sodium phosphate pH 7.4, room temperature, at least three technical replicates, read-out: KD values ± SEM. The protocol:
as §1, §2

The target in test [4] is T2, PDCD6IP Alix V domain. As to the kind of experiment: Phosphomimetic ProP-PD selection, PDCD6IP Alix V domain. To be noted: phosphomimetic enrichment score of the wild-type/phosphomimetic (E) pair at the phosphosite, PM_HD2 phage selection; positive = phosphomimetic enhances binding; P-value in brackets not taken. How it is done: as §3, §4

Residues, ends and D or L forms follow the SMILES beside them.

The Kd is the concentration at which binding is half-saturated. As to `CC(=O)N[C@@H](Cc1c[nH]cn1)C(=O)N[C@@H](CC(C)C)C(=O)N1CCC[C@H]1C(=O)N[C@@H](CC(C)C)C(=O)N[C@@H](CC(N)=O)C(=O)N[C@@H](CCC(=O)O)C(=O)N1CCC[C@H]1C(=O)N[C@@H](CC(C)C)C(=O)N1CCC[C@H]1C(=O)NCC(=O)N[C@@H](CO)C(=O)N[C@@H](CCC(=O)O)C(=O)N[C@@H](CC(C)C)C(=O)N[C@H](C(=O)N[C@@H](CCCCN)C(=O)N[C@@H](Cc1ccc(O)cc1)C(N)=O)[C@@H](C)O` [INTS6_145–159 E] (Ac-HLPLNEPLPGSELTKY-NH2), the Kd in test [1] was determined as 1080 µM. Besides, the PES in test [2] was −4 (0.0044).
With `CC(=O)N[C@H](C(=O)N[C@@H](CCC(=O)O)C(=O)N1CCC[C@H]1C(=O)N[C@@H](CC(C)C)C(=O)N[C@H](C(=O)N[C@@H](CO)C(=O)N[C@@H](CC(C)C)C(=O)N[C@@H](Cc1ccc(O)cc1)C(=O)N1CCC[C@H]1C(=O)N[C@@H](C)C(=O)N[C@@H](CC(C)C)C(=O)N[C@@H](CCC(=O)O)C(=O)N[C@@H](C)C(=O)N[C@@H](CCCNC(=N)N)C(=O)N[C@@H](C)C(=O)N[C@@H](CC(C)C)C(N)=O)C(C)C)[C@@H](C)O` [OTUD5_507–522 E] (Ac-TEPLVSLYPALEARAL-NH2), the Kd in test [3] was 88 ± 7 µM. Further, the PES in test [4] was 0.66 (0.34).
Regarding `CC(=O)N[C@@H](CCCCN)C(=O)N[C@@H](Cc1ccc(O)cc1)C(=O)N[C@@H](CO)C(=O)N[C@@H](CC(=O)O)C(=O)N[C@@H](CC(=O)O)C(=O)N[C@H](C(=O)N1CCC[C@H]1C(=O)N[C@@H](CC(C)C)C(=O)N1CCC[C@H]1C(=O)N[C@@H](CCC(=O)O)C(=O)N1CCC[C@H]1C(=O)N[C@@H](CO)C(=O)N[C@@H](Cc1ccc(O)cc1)C(=O)N[C@@H](CCCCN)C(=O)N[C@@H](Cc1ccc(O)cc1)C(=O)N[C@@H](CC(N)=O)C(N)=O)[C@@H](C)O` [DHX38_260–275 E] (Ac-KYSDDTPLPEPSYKYN-NH2), in test [1], the Kd was 470 ± 35 µM. In addition, the PES in test [2] was 3 (0.04).
As for `CC[C@H](C)[C@H](NC(=O)[C@H](CCCCN)NC(=O)[C@H](CC(C)C)NC(=O)[C@@H]1CCCN1C(=O)[C@H](CCC(=O)O)NC(=O)[C@@H](NC(=O)[C@H](CCC(N)=O)NC(=O)[C@@H]1CCCN1C(=O)[C@H](Cc1ccc(O)cc1)NC(=O)[C@H](CC(C)C)NC(=O)[C@@H]1CCCN1C(=O)[C@H](CCCNC(=N)N)NC(=O)[C@H](CC(C)C)NC(=O)[C@@H]1CCCN1C(=O)[C@H](CO)NC(=O)[C@H](C)NC(C)=O)[C@@H](C)CC)C(N)=O` [FOXK1_212–227 E] (Ac-ASPLRPLYPQIEPLKI-NH2), the Kd in test [3] came out at 13 ± 1 µM. Moreover, in test [4], the PES was 2.9 (0.04).

Values taken from article PMC10333884, “Large‐scale phosphomimetic screening identifies phospho‐modulated motif‐based protein interactions” (Molecular Systems Biology, 2023).
